The values that follow come from publication PMC4821771 (The Journal of steroid biochemistry and molecular biology, 2016).

Each structure is given as a SMILES string. Entries after “also recorded” stand apart in the source; their conditions may differ.

One data set deals with CYP3A4. The following applies: cited from earlier work.
A further data set concerns the target recombinant human CYP3A4 (Homo sapiens, UniProt P08684). The data set can be described thus: Metabolism by CYP3A4 supersomes. The format is in vitro ADME. As to conditions: for proportion of 20,25(OH)2D3:20,24R(OH)2D3:20,24S(OH)2D3: products of 20(OH)D3, CYP3A4 (Fig. S3A); for Km / kcat: initial rates of formation of all products, substrate in 0.45% HP-β-CD, 60 nM CYP3A4, mean ± standard error of the curve fit.

Data set [1] has as its system human liver microsomes. The data set can be described thus: Metabolism of 20. Format: in vitro ADME. As to conditions: for proportion of 20,25(OH)2D3:20,24R(OH)2D3:20,24S(OH)2D3 at the end of the time course: products of 20(OH)D3, human liver microsomes (Fig. S5A). On the technique in general: Liver microsomes are vesicles of endoplasmic reticulum, rich in cytochrome P450 enzymes.

For the next data set, the system named is SKMEL-188 melanoma cells. The following applies: cited from earlier work.
The test system of data set [2] is human liver microsomes. The data set can be described thus: Incubation of human liver microsomes with CYP3A4 inhibitors. As to conditions: for decrease of total products: 50 μM 20(OH)D3, 30 min.
The conditions of data set [3]: high doses, up to 60 μg/kg in rodents; cited from earlier work.
Data set [4] relates to human liver microsomes.
Where [5] appears, read: total product formation from 20(OH)D3, microsomes 1.5 mg/mL.

recombinant human CYP3A4, sequence (P08684 2-503 limits assumed): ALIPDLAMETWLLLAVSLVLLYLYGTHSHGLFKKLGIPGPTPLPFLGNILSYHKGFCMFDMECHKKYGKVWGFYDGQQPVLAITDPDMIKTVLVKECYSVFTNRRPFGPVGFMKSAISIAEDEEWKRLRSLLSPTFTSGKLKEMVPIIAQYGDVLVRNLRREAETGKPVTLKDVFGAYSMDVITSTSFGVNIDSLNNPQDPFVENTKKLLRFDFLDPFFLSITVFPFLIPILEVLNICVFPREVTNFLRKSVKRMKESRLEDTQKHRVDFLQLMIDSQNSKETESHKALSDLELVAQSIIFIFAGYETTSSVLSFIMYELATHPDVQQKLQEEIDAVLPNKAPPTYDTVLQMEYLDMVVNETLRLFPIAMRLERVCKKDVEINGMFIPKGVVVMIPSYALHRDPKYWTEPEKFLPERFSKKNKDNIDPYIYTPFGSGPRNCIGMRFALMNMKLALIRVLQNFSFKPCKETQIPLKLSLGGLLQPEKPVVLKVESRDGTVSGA

Regarding `C=C1CC[C@H](O)C/C1=C/C=C1\CCC[C@]2(C)[C@@H]([C@H](C)CCCC(C)(C)O)CC[C@@H]12` [25(OH)D3, 25-hydroxyvitamin D3], the “catalytic efficiency for metabolism by CYP3A4” value in the data set on CYP3A4 is 1.32 min⁻¹ µM⁻¹.
With `C=C1CC[C@H](O)C/C1=C/C=C1\CCC[C@@]2(C)[C@H]1CC[C@@H]2[C@@](C)(O)CCCC(C)(C)O` [20,25(OH)2D3, 20,25-dihydroxyvitamin D3], the “further metabolism by CYP3A4” value at recombinant human CYP3A4 (25 μM substrate in 0.45% HP-β-CD, 60 nM CYP3A4, one hour) is “essentially no products formed”. Further, the “proportion of 20,25(OH)2D3:20,24R(OH)2D3:20,24S(OH)2D3” value at recombinant human CYP3A4 is 1. In addition, in the data set with human liver microsomes [1] (formation of the named product from 20(OH)D3, as given in the text), the Vmax is 134.2 ± 36.0 pmol/min/mg protein. In the data set on human liver microsomes [1], the “proportion of 20,25(OH)2D3:20,24R(OH)2D3:20,24S(OH)2D3 at the end of the time course” value (“proportion … of the time course” below) came out at 1. Further, the “inhibition of colony formation compared with 20(OH)D3” value in the data set on SKMEL-188 melanoma cells is reported as “more potent; also recorded: more strongly than the parent 20(OH)D3”.
As to `CC[C@]1(C)C[C@@H](OC(=O)CSc2nnc(N)[nH]2)[C@]2(C)[C@H](C)CC[C@]3(CCC(=O)[C@H]32)[C@@H](C)[C@@H]1O` [azamulin], the “decrease of total products” value in the data set with human liver microsomes [2] (1 μM azamulin) is reported as 60.0%; in the data set with human liver microsomes [2] (10 μM azamulin), 75.9%. In the data set on human liver microsomes [2] (human liver microsomes, abstract statement), the “inhibition of production of 20,24R(OH)2D3, 20,24S(OH)2D3 and 20,25(OH)2D3” value was “almost completely inhibited”.
Turning to `C=C1CC[C@H](O)C/C1=C/C=C1\CCC[C@@]2(C)[C@H]1CC[C@@H]2[C@@](C)(O)CC[C@H](O)C(C)C` [20,24S(OH)2D3, 20,24S-dihydroxyvitamin D3], on recombinant human CYP3A4, the Michaelis-Menten constant (Km) (commonly the substrate concentration at which the rate is half of its maximum) is 86.9 ± 44.3 µM, the kcat (usually the maximal rate divided by the concentration of active sites) came to 0.275 ± 0.0717 s⁻¹ and the “proportion of 20,25(OH)2D3:20,24R(OH)2D3:20,24S(OH)2D3” value is reported as 0.14. Further, in the data set on human liver microsomes [1], the “proportion … of the time course” value turned out to be 0.16.
For the compound `C=C1CC[C@H](O)C/C1=C/C=C1\CCC[C@@]2(C)[C@H]1CC[C@@H]2[C@@](C)(O)CCCC(C)C` [20(OH)D3, 20S-Hydroxyvitamin D3], the “more products with substrate in HP-β-CD than when added from acetonitrile” value on recombinant human CYP3A4 (CYP3A4 supersomes, not shown) worked out at 25 fold. Besides, the “metabolised faster than 25(OH)D3 (times)” value at recombinant human CYP3A4 (formation of total products, 50 μM substrate (Fig. S3B)) was “approximately 30 times”. For the same compound, at recombinant human CYP3A4, the Km turned out to be 32.6 ± 2.8 µM and the kcat was 0.295 ± 0.0083 s⁻¹. Moreover, the “substrate consumed by the end of the incubation” value at recombinant human CYP3A4 (time course of 20(OH)D3 metabolism by CYP3A4 (Fig. S3A)) worked out at 18%. In the data set with human liver microsomes [1] (setting [5]), the Km is 165 ± 56 µM and the Vmax worked out at 292.6 ± 60.3 min⁻¹. The hypercalcaemia result in data set [3] was “does not induce hypercalcaemia”.
`C=C1/C(=C\C=C2/CCC[C@]3(C)[C@@H]([C@H](C)CCCC(C)(C)O)CC[C@@H]23)C[C@@H](O)C[C@@H]1O` [1,25(OH)2D3, 1,25-dihydroxyvitamin D3]: the “efficiency of metabolism by CYP3A4” value with CYP3A4 is 0.70 min^−1μM^−1.
Regarding `C=C1CC[C@H](O)C/C1=C/C=C1\CCC[C@@]2(C)[C@H]1CC[C@@H]2[C@@](C)(O)CC[C@@H](O)C(C)C` [20,24R(OH)2D3, 20,24R-dihydroxyvitamin D3], at recombinant human CYP3A4, the Km was 332 ± 194 µM, the kcat came to 1.08 ± 0.475 s⁻¹ and the “proportion of 20,25(OH)2D3:20,24R(OH)2D3:20,24S(OH)2D3” value came out at 0.41. Besides, the “proportion … of the time course” value in the data set on human liver microsomes [1] was found to be 0.47. In addition, in the data set with SKMEL-188 melanoma cells, the “inhibition of colony formation compared with 20(OH)D3” value is “more potent; also recorded: more strongly than the parent 20(OH)D3”.
For `NNC(=O)c1ccncc1` [isoniazid], the “effect on peaks corresponding to 20,25(OH)2D3, 20,24R(OH)2D3/20,26(OH)2D3, 20,24S(OH)2D3 and H6” value in the data set on human liver microsomes [4] is “markedly decreased”.
